Experiment: Solubility measurement in water (Test Example)
Type: physicochemical
Conditions: 25° C., 1 atm, 24 hr
Experimental: In order to evaluate the validity of the method of determining the water insolubility according to the present invention in the Example and Comparative Example, the following testing was performed.

Row | water solubility (in words) (100 g of water) | Compound | amount dissolved in 100 g of water
1 | approximated zero | c1ccc2ccccc2c1 [Bicyclo[4.4.0]deca-1,3,5,7,9-pentene] | –
2 | – | CCC(C)O (centres unmarked) [2-butanol] | 30 g

Reference: patent US10242162B2 (LG Chem, Ltd., priority 2014, dated 2019)
